3 compounds from article PMC10477347, “O-methyltransferase-like enzyme catalyzed diazo installation in polyketide biosynthesis” (Nature Communications, 2023) can be followed below.

The target of one test is T1, AlpJ (Streptomyces ambofaciens, UniProt Q6VMI5).
T1 construct: pET28a, Ni-NTA purified from E. coli BL21(DE3); gene amplified from kinamycin BAC 3C2
T1 sequence (Q6VMI5 1-232): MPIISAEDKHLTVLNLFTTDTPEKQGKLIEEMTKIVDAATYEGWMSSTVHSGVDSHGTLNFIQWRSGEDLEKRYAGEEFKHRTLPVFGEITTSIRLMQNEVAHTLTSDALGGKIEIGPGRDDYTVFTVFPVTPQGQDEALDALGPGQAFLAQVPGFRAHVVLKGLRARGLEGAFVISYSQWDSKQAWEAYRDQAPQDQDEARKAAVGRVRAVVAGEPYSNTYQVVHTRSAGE
Briefly: HPLC of products […] and […] from one-pot reaction with AlpK. The test is classed as biochemical. The settings on record: NADH, FAD, pH 7.5, 30 °C.

Another test has as its target T2, AlpH (Streptomyces ambofaciens, UniProt Q6VMJ4).
T2 construct: N-terminal His6-tagged, pET28a, E. coli BL21(DE3); homodimer in the apo crystal; gene amplified from kinamycin BAC 3C2
As to the kind of experiment: surface plasmon resonance (Biacore 8K, AlpH immobilized on CM5). The test is classed as binding. The text has this: surface plasmon resonance (Biacore 8K, AlpH immobilized on CM5) on AlpH | Surface plasmon resonance analysis of AlpH and gluN2H3 also identified a specific interaction between them
For orientation: In SPR one partner is held on a chip, and binding of the other changes the refractive index at the surface.

In test [1] the target is AlpH, O-methyltransferase-like protein from the kinamycin biosynthetic gene cluster. As to the kind of experiment: crystal structure; apo-AlpH, hanging drop vapor diffusion at 16 °C; protein in 20 mM Tris-HCl pH 7.5, 100 mM NaCl, 1 mM DTT, 1 mM EDTA; reservoir 0.03 M citric acid, 0.07 M Bis-Tris propane pH 7.6, 20% PEG3350; molecular replacement, 1.87 Å.

T2 sequence (Q6VMJ4 entry or part of it): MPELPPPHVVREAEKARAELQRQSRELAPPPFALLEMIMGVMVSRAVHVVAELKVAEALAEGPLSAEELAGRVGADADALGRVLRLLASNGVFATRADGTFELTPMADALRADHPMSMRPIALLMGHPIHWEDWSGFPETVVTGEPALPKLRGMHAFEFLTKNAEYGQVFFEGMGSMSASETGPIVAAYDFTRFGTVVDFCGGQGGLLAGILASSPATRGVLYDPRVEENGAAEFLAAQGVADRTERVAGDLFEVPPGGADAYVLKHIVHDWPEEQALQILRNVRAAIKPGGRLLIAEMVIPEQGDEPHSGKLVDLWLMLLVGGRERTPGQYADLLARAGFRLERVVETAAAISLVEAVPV

`Cc1cc(O)c2c3c(c(O)cc2c1)C(=O)c1c(O)cccc1C3=O` [DHR]: at AlpJ, the “HPLC of products 1 and 6 from one-pot reaction with AlpK” value was “prepared in situ by incubating AlpJ and AlpK with DHR and NADH”.
By Kd is commonly meant the concentration at which binding is half-saturated. Take `NNC(=O)CC[C@H](N)C(=O)O` [gluN2H3]: the Kd at AlpH was 0.114 µM.
The stoichiometry N is a count of units in the complex or per binding partner. As for “AlpH, O-methyltransferase-like protein from the kinamycin biosynthetic gene cluster (enzyme)”, the stoichiometry N in test [1] is 2.
